# Measurements from PubChem BioAssay AID1918957 (Molecular Pharmacology Branch, DTP, NCI, 2023).
# “And” between values parts separate entries of the source, which are not always exact repeats. Identical values can stand only once.
# Tested on: NCI-H1876 complex spheroid viability
# Test: Anticancer human tumor NCI-H1876 cell line growth inhibition [LSD1];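 also: spheroids exposed to compounds for one week before readout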;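 as to viability, T/C: 100% = DMSO vehicle-treated spheroids so lower means fewer viable cells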
# Conditions: for viability, T/C: stronger effect = lower value
# Excerpt: Multicellular complex tumor spheroid response to LSD1 Inhibitor Iadademstat in combination with a variety of drugs and investigational agents in selected tumor cell lines
# The current study was undertaken to assess response to LSD1 inhibitors in combination with standard-of-care drugs and investigational agents in solid tumor complex spheroid models as well as in the K-562 leukemia. Complex spheroids include a stromal component modeled by human endothelial cells (HUVEC) and fibroblasts modeled by human mesenchymal stem cells (MSCs). The concentration ranges selected for each drug and investigational agent were based upon clinically achievable concentrations if the clinical Cmax of the agent was known.
# Compounds. The drugs and investigational agents used in this study are listed on Table 1. All of the agents used, including staurosporine (NSC755774) and gemcitabine (NSC613327), were obtained from the Developmental Therapeutics Program, NCI. FDA-approved anticancer drugs are available from the NCI at http://dtp.nci.nih.gov/branches/dscb/oncology_drugset_explanation.html. Drugs and investigational agents were >95% pure by proton nuclear magnetic resonance (NMR) and liquid chromatography/mass spectrometry (LC/MS). Stock solutions were prepared at 400x in DMSO, stored at -70 degrees C, and diluted in fresh medium prior to their use. The final concentration of DMSO in cell culture wells never exceeded 0.25% (v/v). The FDA-approved anticancer drug set is available from the Developmental Therapeutics Program at https://dtp.cancer.gov/organization/dscb/obtaining/available_plates.htm. All drugs and investigational agents were tested over a range starting from a high concentration at or near the clinical Cmax and decreasing in half-log increments. If the clinical Cmax for an agent had not been determined, the highest concentration tested was 10 microM.
# Cell Lines. The patient-derived cancer cell (PDC) lines: 292921-168-R-J2-PDC, K24384-001-R-PDC, and 521955-158-R2-J5-PDC pancreatic carcinomas, 556581-035-R-J1 ovarian carcinoma, 324938-238-R-J1-PDC, 855422-203-R-J1-PDC and 883617-216-R-J1-PDC urothelial bladder carcinomas, 743489-274-T-PDC renal cell carcinoma, 138582-R-J1 Merkel cell tumor, K60290-347-R-J1 and K57222-313-R-J1-PDC glioblastomas, 653999-131-R-J2-PDC, LG0703-F948-PDC, and 349418-098-R-PDC non-small cell lung carcinomas, 885512-296-R-J2-PDC, 171881-019-R-J1-PDC breast carcinomas and 186277-243-T-J2-PDC and 233499-124-R-J2-PDC colon carcinomas were obtained from the NCI Patient-Derived Models Repository (PDMR, https://pdmr.cancer.gov). The established cell lines NCI/ADR-RES (RRID:CVCL_14520 and OVCAR-5 (RRID:CVCL_1628) ovarian carcinomas, 786-O (RRID:CVCL_1051) and A498 (RRID:CVCL_A498) renal cell carcinoma, NCI-H211 (ATCC, cat. CRL-5824; RRID:CVCL_1529), NCI-H196 (ATCC, cat. CRL-5823, RRID:CVCL_1509), SW 1271 (ATCC, cat. CRL-2177, RRID:CVCL_1716) and NCI-H1876 (ATCC, cat. CRL-5902, RRID:CVCL_1503) small cell lung carcinomas, MDA-MB-231 (RRID:CVCL_0062) and MDA-MB-468 (RRID:CVCL_0419)breast carcinomas (10-12). Pooled donor human umbilical vein endothelial cells (HUVEC, Lonza, cat. CC-2519) and human mesenchymal stem cells (hMSC, Lonza, cat. PT-2501) were purchased from Lonza (Walkersville, MD).
# Cell Culture. All cells were maintained in an incubator at 37 degrees C and 5% CO2 with 95% humidity. The PDC lines were cultured according to standard operating procedures established by the NCI PDMR (https://pdmr.cancer.gov). Briefly all PDCs were thawed and cultured in Matrigel-coated flasks prepared with a working solution of 1X Ham's F-12 nutrient mix, without supplementation (Invitrogen, Waltham, MA, cat. 11765054), 100 U/mL penicillin-streptomycin (Invitrogen, cat. 15140122), and 2.5% Matrigel (Corning Inc., Corning, NY, cat. 354248) for the first three passages. […]
smiles,measurement,setting,value
CC1COCCN1c1cc(-c2ccnn2C)c2ccnc(-c3ccn[nH]3)c2n1 (centres undefined) + NC1CC1c1ccc(-c2cccc(O)c2)cc1,IC50,"curve of first compound, second compound 0.1 µM",3.89 nM
same,IC50,"curve of first compound, second compound 0.316 µM",3.77 nM
same,IC50,"curve of first compound, second compound 1 µM",4.13 nM
same,IC50,"curve of first compound, second compound 3.16 µM",< 3.16 nM
same,IC50,"curve of first compound, second compound 10 µM",< 3.16 nM
same,"viability, T/C","second compound 0.1 µM, first compound 0.00316 µM",51.9%
same,"viability, T/C","second compound 0.1 µM, first compound 0.01 µM",41.5%
same,"viability, T/C","second compound 0.1 µM, first compound 0.0316 µM",16.5%
same,"viability, T/C","second compound 0.1 µM, first compound 0.1 µM",4.97%
same,"viability, T/C","second compound 0.1 µM, first compound 0.316 µM",3.26%
same,"viability, T/C","second compound 0.1 µM, first compound 1 µM",3.75%
same,"viability, T/C","second compound 0.316 µM, first compound 0.00316 µM",51.6%
same,"viability, T/C","second compound 0.316 µM, first compound 0.01 µM",41.4%
same,"viability, T/C","second compound 0.316 µM, first compound 0.0316 µM",17.6%
same,"viability, T/C","second compound 0.316 µM, first compound 0.1 µM",4.99%
same,"viability, T/C","second compound 0.316 µM, first compound 0.316 µM",3.15%
same,"viability, T/C","second compound 0.316 µM, first compound 1 µM",3.99%
same,"viability, T/C","second compound 1 µM, first compound 0.00316 µM",51.9%
same,"viability, T/C","second compound 1 µM, first compound 0.01 µM",43.7%
same,"viability, T/C","second compound 1 µM, first compound 0.0316 µM",19.2%
same,"viability, T/C","second compound 1 µM, first compound 0.1 µM",5.94%
same,"viability, T/C","second compound 1 µM, first compound 0.316 µM",3.81%
same,"viability, T/C","second compound 1 µM, first compound 1 µM",4.68%
same,"viability, T/C","second compound 3.16 µM, first compound 0.00316 µM",43%
same,"viability, T/C","second compound 3.16 µM, first compound 0.01 µM",39.5%
same,"viability, T/C","second compound 3.16 µM, first compound 0.0316 µM",18.3%
same,"viability, T/C","second compound 3.16 µM, first compound 0.1 µM",5.67%
same,"viability, T/C","second compound 3.16 µM, first compound 0.316 µM",3.74%
same,"viability, T/C","second compound 3.16 µM, first compound 1 µM",4.48%
same,"viability, T/C","second compound 10 µM, first compound 0.00316 µM",37.5%
same,"viability, T/C","second compound 10 µM, first compound 0.01 µM",31.5%
same,"viability, T/C","second compound 10 µM, first compound 0.0316 µM",16.8%
same,"viability, T/C","second compound 10 µM, first compound 0.1 µM",6.91%
same,"viability, T/C","second compound 10 µM, first compound 0.316 µM",4.75%
same,"viability, T/C","second compound 10 µM, first compound 1 µM",5.76%
CC[C@@]1(O)C(=O)OCc2c1cc1n(c2=O)Cc2cc3c(CN(C)C)c(O)ccc3nc2-1,"viability, T/C",compound 0.000316 µM,94% and 106%
same,"viability, T/C",compound 0.001 µM,86.2% and 81.2%
same,"viability, T/C",compound 0.00316 µM,33.5% and 14.2%
same,"viability, T/C",compound 0.01 µM,27.7% and 10.6%
same,"viability, T/C",compound 0.0316 µM,19.8% and 6.98%
same,"viability, T/C",compound 0.1 µM,15.5% and 4.68%
same,IC50,curve of compound,2.22 nM and 1.71 nM
CC1COCCN1c1cc(C2(S(C)(=N)=O)CC2)nc(-c2ccnc3[nH]ccc23)n1 (centres undefined),"viability, T/C",compound 0.0316 µM,103% and 104%
same,"viability, T/C",compound 0.1 µM,109% and 102%
same,"viability, T/C",compound 0.316 µM,102% and 103%
same,"viability, T/C",compound 1 µM,102% and 105%
same,"viability, T/C",compound 3.16 µM,80.3% and 74.2%
same,"viability, T/C",compound 10 µM,28.5% and 23.1%
same,IC50,curve of compound,6200 nM and 5450 nM
